The assay has as its system 422866-222-R5-J1-PDC complex spheroids viability. In words: Anticancer human tumor 422866-222-R5-J1-PDC patient-derived pancreatic adenocarcinoma cell line growth inhibition [RAS]. The settings on record: for viability, T/C: stronger effect = lower value; for IC50: curve of first compound. An outline of the steps:
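Tumour cells grown as complex spheroids with HUVEC endothelial cells and mesenchymal stem cells, treated with RAS pathway inhibitor combinations. Each agent spans half-log steps from near clinical Cmax, or 10 microM where Cmax is unknown.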

Structures are written as SMILES. A value given as a limit tells only on which side of the number the result lay.

Broadly, the viability, T/C is the ratio of treated to control. For orientation: IC50 means the concentration that gives 50% inhibition.
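Note: spheroids exposed to compounds for 7 days.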
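Throughout, for viability, T/C: 100% = DMSO vehicle control viability.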

For `Nc1ccn(C2OC(CO)C(O)C2(F)F)c(=O)n1` (stereo not drawn), the viability, T/C was 91.2% [middle of 4 runs] (compound 0.00316 µM); 82.8% [middle of 4 runs] (compound 0.01 µM); 72.5% [middle of 4 runs] (compound 0.0316 µM); 55% [middle of 4 runs] (compound 0.1 µM); 42.9% [middle of 4 runs] (compound 0.316 µM); 37.8% [middle of 4 runs] (compound 1 µM).
Turning to `CC1(O)CCCC1n1c(=O)c(C(F)F)cc2cnc(NC3CCN(S(C)(=O)=O)CC3)nc21` (stereo not drawn) + CCn1c(-c2cccnc2C(C)OC)c2c3cc(ccc31)N1CCOC(CC(NC(=O)C(C(C)C)N(C)C(=O)C3(F)CCN(C(=O)C#CC(C)(C)N(C)C)CC3)C(=O)N3CCCC(N3)C(=O)OCC(C)(C)C2)C1, the IC50 was under 31.6 nM (second compound 0.000949 µM); under 31.6 nM (second compound 0.003 µM); under 31.6 nM (second compound 0.00949 µM); under 31.6 nM (second compound 0.03 µM); under 31.6 nM (second compound 0.0949 µM); under 31.6 nM (second compound 0.3 µM). Besides, the viability, T/C was 28.6% (second compound 0.000949 µM, first compound 0.0316 µM); 30.5% (second compound 0.000949 µM, first compound 0.1 µM); 29.6% (second compound 0.000949 µM, first compound 0.316 µM); 31.9% (second compound 0.000949 µM, first compound 1 µM); 40.8% (second compound 0.000949 µM, first compound 3.16 µM); 38.2% (second compound 0.000949 µM, first compound 10 µM). Moreover, the viability, T/C by setting is: (second compound 0.003 µM, first compound 0.0316 µM) 24.8%; (second compound 0.003 µM, first compound 0.1 µM) 34.6%; (second compound 0.003 µM, first compound 0.316 µM) 24.7%; (second compound 0.003 µM, first compound 1 µM) 27.1%; (second compound 0.003 µM, first compound 3.16 µM) 29.8%; (second compound 0.003 µM, first compound 10 µM) 38.2%. Moreover, the viability, T/C is, setting by setting: (second compound 0.00949 µM, first compound 0.0316 µM) 25.3%; (second compound 0.00949 µM, first compound 0.1 µM) 24.8%; (second compound 0.00949 µM, first compound 0.316 µM) 25.2%; (second compound 0.00949 µM, first compound 1 µM) 26.8%; (second compound 0.00949 µM, first compound 3.16 µM) 34.3%; (second compound 0.00949 µM, first compound 10 µM) 45.2%. For the same molecule, the viability, T/C is 22.9% (second compound 0.03 µM, first compound 0.0316 µM); 20.5% (second compound 0.03 µM, first compound 0.1 µM); 23.5% (second compound 0.03 µM, first compound 0.316 µM); 23% (second compound 0.03 µM, first compound 1 µM); 29.7% (second compound 0.03 µM, first compound 3.16 µM); 45.4% (second compound 0.03 µM, first compound 10 µM). For the same molecule, the viability, T/C by setting is: (second compound 0.0949 µM, first compound 0.0316 µM) 21.1%; (second compound 0.0949 µM, first compound 0.1 µM) 20.5%; (second compound 0.0949 µM, first compound 0.316 µM) 22.4%; (second compound 0.0949 µM, first compound 1 µM) 22%; (second compound 0.0949 µM, first compound 3.16 µM) 29.9%; (second compound 0.0949 µM, first compound 10 µM) 43.5%. The viability, T/C (second compound 0.3 µM, first compound 0.0316 µM) is 15.5%; the viability, T/C (second compound 0.3 µM, first compound 0.1 µM) was 19.8%; the viability, T/C (second compound 0.3 µM, first compound 0.316 µM) is 19%; the viability, T/C (second compound 0.3 µM, first compound 1 µM) is 20.5%; the viability, T/C (second compound 0.3 µM, first compound 3.16 µM) is 24.9%; the viability, T/C (second compound 0.3 µM, first compound 10 µM) is 47.3%.

(Values after PubChem BioAssay AID2060901 (Molecular Pharmacology Branch, DTP, NCI, 2025).)
